Data from US10988812B2, “Fusion genes associated with progressive prostate cancer” (UNIVERSITY OF PITTSBURGH - OF THE COMMONWEALTH SYSTEM OF …, priority 2013, dated 2021).
Like-named read-outs stand apart in the source and are kept apart here.

What was measured:
Format in all cases: cell-based, human
[1] = tested on: MAN2A1-FER transformed PC3 cells; experiment: Cell death of PC3 cells transformed with pCDNA4-MAN2A1-FER-FLAG/pCDNA6
Method: FIG. 23. […] Prostate cancer cell line PC3 was transformed with pCDNA4-MAN2A1-FER-FLAG/pCDNA6. Expression of MAN2A1-FER was induced with 5 μg/mL tetracycline. Cells not treated with tetracycline nor any drug were used as background controls.
The second approach is to target EGFR activation by EGFR inhibitors. These include erlotinib, cetuximab, […], canertinib and […]. Many of these drugs were FDA approved and is widely used in a variety of human solid tumors. To interrogate the effectiveness of EGFR activation interruption in treating prostate cancer, we treated MAN2A1-FER transformed PC3 cells with canertinib.

[2] = tested on: PC3 cells; experiment: Ganciclovir killing of PC3 cells after genome editing that integrates HSV-1 TK at the TMEM135-CCDC67 breakpoint; conditions: PC3 cells without TMEM135-CCDC67 breakpoint, same treatment
From the text: (§1) FIG. 28A-B. Genetic therapy targeting at TMEM135-CCDC67 genome breakpoint.
(§2) The technique described above was applied to cells having the TMEM135-CCDC67 breakpoint. Since none of the fusion genes we identified so far was present in prostate cancer cell lines, we created a TMEM135-CCDC67 genome breakpoint that is identical to the prostate cancer sample we analyzed. The expression of the TMEM135-CCDC67 breakpoint was driven by a CMV promoter. Subsequently, we constructed a donor DNA that encompassed HSV-1 TK and the splicing sites of TMEM135 exon 14. When we co-transfected this donor DNA with a vector that expresses gRNA targeting at the TMEM135-CCDC67 breakpoint into PC3 cells containing this genome breakpoint, integration of TK into the genome was identified (FIG. 28A). […] This is remarkable in considering only 5-10% transfection efficiency using conventional liposome method. […] In light of this promising result, both TMEM135-CCDC67-TK cassette and NicKase-gRNATMEM135-CCDC67-BrkPt DNA are now in the process of packaging into Adenovirus. We will infect the recombinant virus into these cells in the future experiments. This will dramatically improve the delivery efficiency in the subsequent animal study and probably human.

[3] = tested on: PC3 cells containing TMEM135-CCDC67 breakpoint; experiment: as above
From the text: as §1, §2

For `C[C@@H](Oc1cc(-c2cnn(C3CCNCC3)c2)cnc1N)c1c(Cl)ccc(F)c1Cl` [Crisotinib], the cell death [1] was 31%, the “cell death / killing of cells not expressing MAN2A1-FER” value [1] was “hardly killed” and the “lowering of cancer killing EC50 by expression of MAN2A1-FER” value [1] was ~100 fold. For the same compound, the “specific killing of MAN2A1-FER expressing cells (FIG. 23)” value [1] was “specifically kills”.

`C=CC(=O)Nc1cc2c(Nc3ccc(F)c(Cl)c3)ncnc2cc1OCCCN1CCOCC1` [Canertinib] was tested, and the “cell death / killing of cells not expressing MAN2A1-FER” value ([1]; PC3 cells not expressing MAN2A1-FER (Tet-)) was “minimal” and the “specific killing of MAN2A1-FER expressing cells (FIG. 23)” value ([1]; expression induced with 5 μg/mL tetracycline) was “specifically kills”.

With `Cn1cnc2c(F)c(Nc3ccc(Br)cc3Cl)c(C(=O)NOCCO)cc21` [AZD6244] the “differential killing effect (MAN2A1-FER expressing versus not)” value ([1]; MEK interception, data not shown) was “largely moderated and vanished”.

In the case of `Nc1nc(O)c2ncn(COC(CO)CO)c2n1` [ganciclovir], the cell death [2] is reported as “minimal cell death” and the “specific killing of TMEM135-CCDC67 breakpoint containing PC3 cells (FIG. 28B)” value [3] is reported as “specific killing”.
